Patent US10640457B2, “Histone acetyltransferase activators and uses thereof” (The Trustees of Columbia University in the City of New York, priority 2009, dated 2020)
“And” between values parts separate entries of the source, which are not always exact repeats. Identical values can stand only once. “Also recorded” adds a separate entry of the source.

Tests used:
[1] = test system: histone acetylation (ACH3) in hippocampus, cortex, liver; assay: Western blot of histone acetylation in mouse tissues after compound administration; type: in vivo, mice
Source text: The mice liver and hippocampus were extracted 1 hr after treatment. […] In addition to the mouse liver and hippocampus, the mouse cortex was also extracted.
The BBB was by-passed by giving it through cannulas implanted onto the dorsal hippocampus. Both the hippocampus and cortex were extracted at 2 hrs or 4 hrs after treatment.
Two and four hrs after its administration, the mice were sacrificed and hippocampi were extracted. […] Purity was verified through Nuclear Magnetic Resonance (NMR). […] Hippocampus extraction was made at 3 different time points (0.5, 1 and 2 hrs post treatment). We then ran a western blotting for ACH3.
The compound was i.p. administered at 20 mg/Kg, mice were sacrificed 30 min later, and hippocampi were removed and quickly frozen for WB analysis. […] (each herein incorporated by reference in its entirety). […]

[2] = target: T1, HDAC11 (Homo sapiens, UniProt Q96DB2); assay: HDAC11 fluorogenic activity assay; conditions: for % Activity: Repeat1/Repeat2, listed as OA2
T1 sequence (Q96DB2 1-347): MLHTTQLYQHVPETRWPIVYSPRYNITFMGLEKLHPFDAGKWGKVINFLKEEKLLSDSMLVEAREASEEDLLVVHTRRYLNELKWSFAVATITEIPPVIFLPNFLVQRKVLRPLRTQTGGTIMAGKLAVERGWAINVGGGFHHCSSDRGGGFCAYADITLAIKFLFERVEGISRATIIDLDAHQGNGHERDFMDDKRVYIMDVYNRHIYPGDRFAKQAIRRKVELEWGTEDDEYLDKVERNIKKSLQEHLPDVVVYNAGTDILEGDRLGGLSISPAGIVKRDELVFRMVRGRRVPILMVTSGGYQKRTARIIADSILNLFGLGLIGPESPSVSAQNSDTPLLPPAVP

[3] = in vivo, ip
[4] = target: HDAC3/NCOR2 (Homo sapiens, UniProt O15379); assay: HDAC3/NCOR2 fluorogenic activity assay
[5] = target: T2, CBP (Homo sapiens, UniProt Q92793); assay: In vitro HAT activation assay, CBP; type: biochemical
T2 construct: we will use the catalytic domain of human CBP, PCAF, p300 and GCNS (Enzo Life Sci., USA); purchased Enzo Life Sci
Source text: Compounds will be tested for HAT activator activity first, using the HAT Assay kit from Active Motif (USA, CA). For this assay, we will use the catalytic domain of human CBP, PCAF, p300 and GCNS (Enzo Life Sci., USA). The catalytic domains for the remaining HATs will be produced using New England Biolabs K. lactis Protein Expression Kit. […] When assayed against all other HATs, they must show at least a 50 fold greater potency towards CBP and/or PCAF.

[6] = target: T3, HDAC8 (Homo sapiens, UniProt Q9BY41); assay: HDAC8 fluorogenic activity assay; conditions: for % Activity: Repeat1/Repeat2, listed as OA2
T3 sequence (Q9BY41 1-377): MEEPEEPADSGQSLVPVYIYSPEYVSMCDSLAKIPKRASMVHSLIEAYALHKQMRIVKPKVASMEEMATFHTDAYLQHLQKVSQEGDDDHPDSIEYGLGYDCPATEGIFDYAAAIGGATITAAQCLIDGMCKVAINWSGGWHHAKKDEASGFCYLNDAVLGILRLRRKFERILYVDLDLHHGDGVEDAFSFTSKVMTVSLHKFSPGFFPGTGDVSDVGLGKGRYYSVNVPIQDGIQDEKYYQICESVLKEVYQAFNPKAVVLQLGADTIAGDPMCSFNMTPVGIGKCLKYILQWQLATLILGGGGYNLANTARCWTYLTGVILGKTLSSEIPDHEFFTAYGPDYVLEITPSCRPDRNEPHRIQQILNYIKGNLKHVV

[7] = test system: YAC128 mice; assay: Open field in YAC128 Huntington's Disease mice; type: in vivo; conditions: for effect of treatment on total locomotion (distance traveled, 30 min): age 6 mo., YF2 5 mg/kg
Description: Animals: Mouse models of Huntington's Disease (YAC128) versus wildtype (WT) littermates.
Open field: This assay is a common assay used to monitor total spontaneous locomotor activity and exploratory behavior in mouse models of Huntington's disease (HD). The spontaneous locomotor activity of the animals was measured using an automated photo-beam open-field system (Med-Associates, St Albans, Vt.). Mice were placed individually in the center of a clear open-field chamber (27.9 cm×27.9 cm×20 cm), and their horizontal and vertical activities were measured immediately for 30 min with three 16-beam UR arrays. Locomotor activity was assessed as the distance traveled in 5-min intervals. The number of mice typically used for open field range from 12 to 15 mice.

[8] = target: HDAC1 (Homo sapiens, UniProt Q13547); assay: HDAC1 fluorogenic activity assay; conditions: for % Activity: Repeat1/Repeat2, listed as OA2
Sequence of HDAC1 (Q13547 whole entry): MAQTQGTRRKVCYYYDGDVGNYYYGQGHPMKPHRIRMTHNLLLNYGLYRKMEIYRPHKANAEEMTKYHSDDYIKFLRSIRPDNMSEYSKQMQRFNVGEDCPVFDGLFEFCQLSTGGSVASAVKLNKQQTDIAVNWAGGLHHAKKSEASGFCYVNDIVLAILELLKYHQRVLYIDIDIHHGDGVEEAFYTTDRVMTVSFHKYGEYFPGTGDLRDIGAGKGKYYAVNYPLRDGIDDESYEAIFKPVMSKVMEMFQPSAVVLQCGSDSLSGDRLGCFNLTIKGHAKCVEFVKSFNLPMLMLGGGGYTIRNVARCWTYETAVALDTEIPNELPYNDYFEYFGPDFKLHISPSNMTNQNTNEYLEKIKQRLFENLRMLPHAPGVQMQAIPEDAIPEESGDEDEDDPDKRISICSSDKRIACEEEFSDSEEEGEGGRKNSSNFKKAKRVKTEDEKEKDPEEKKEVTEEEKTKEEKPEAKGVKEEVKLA

Sequence of HDAC3/NCOR2 (O15379 whole entry): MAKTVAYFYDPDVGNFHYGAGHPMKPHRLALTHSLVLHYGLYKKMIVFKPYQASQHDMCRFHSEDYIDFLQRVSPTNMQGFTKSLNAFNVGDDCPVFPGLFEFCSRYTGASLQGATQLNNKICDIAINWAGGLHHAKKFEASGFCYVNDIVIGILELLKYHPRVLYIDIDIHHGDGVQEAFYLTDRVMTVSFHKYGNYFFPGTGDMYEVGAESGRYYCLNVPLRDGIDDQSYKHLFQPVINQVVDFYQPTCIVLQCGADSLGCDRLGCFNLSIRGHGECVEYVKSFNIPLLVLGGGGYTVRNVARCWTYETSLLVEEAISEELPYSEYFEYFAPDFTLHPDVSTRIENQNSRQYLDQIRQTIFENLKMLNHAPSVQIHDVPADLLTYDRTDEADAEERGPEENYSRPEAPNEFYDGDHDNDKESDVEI
Sequence of HDAC3/NCOR2 (Q9Y618 395-489 partner limits assumed): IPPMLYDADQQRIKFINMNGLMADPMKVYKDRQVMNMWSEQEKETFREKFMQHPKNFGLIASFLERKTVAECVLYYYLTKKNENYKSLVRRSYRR
T2 sequence (Q92793 1323-1700 limits assumed): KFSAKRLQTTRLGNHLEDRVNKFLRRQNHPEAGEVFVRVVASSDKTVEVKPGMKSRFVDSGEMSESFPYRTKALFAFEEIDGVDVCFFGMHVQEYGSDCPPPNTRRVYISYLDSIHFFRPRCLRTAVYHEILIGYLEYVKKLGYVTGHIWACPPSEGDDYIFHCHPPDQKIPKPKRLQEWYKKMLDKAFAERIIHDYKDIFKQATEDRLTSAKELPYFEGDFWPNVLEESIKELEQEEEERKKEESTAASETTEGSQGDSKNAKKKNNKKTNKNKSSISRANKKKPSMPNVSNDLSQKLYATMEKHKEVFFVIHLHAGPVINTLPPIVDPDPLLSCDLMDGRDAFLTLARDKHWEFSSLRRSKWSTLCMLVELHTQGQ

## CCOc1cccc(OCCN(C)C)c1C(=O)Nc1ccc(Cl)c(C(F)(F)F)c1 [YF2]
[1]; 20 mg/Kg i.p., sacrificed 30 min later
  acetylation of H3K4, H3K9, H3K14, H4K5, H4K8, H4K12, H4K16 and H2B in hippocampus: increased
[1]; 50 mg/kg i.p., 2 and 4 hrs after administration
  ACH3 in hippocampus: increase
[1]; 5, 10, 20 mg/Kg i.p. in saline, 0.5, 1 and 2 hrs, except 1 hr-10 mg/kg
  ACH3 levels in hippocampus: dramatically increased
[1]; after foot shock, FIG. 80
  histone acetylation levels following Aβ elevation: restores
[1]; basal conditions, FIG. 79
  histone acetylation levels following Aβ elevation: restores
[1]; concluded from brain histone acetylation after i.p. administration
  crossing of the blood brain barrier (BBB): able to cross the BBB; also recorded: crosses the BBB and the cell membrane
[1]; i.p. 5 mg/kg, Aβ 200 nM infused onto dorsal hippocampi, 5 mg/kg
  Aβ-induced decrease in H3 acetylation levels in hippocampus: able to rescue; also recorded: rescued
[1]; i.p., FIG. 1
  histone 3 acetylation levels of the hippocampus: increases
[2]
  IC50: > 200 µM
[2]; OA2 Log[nM] 0.5
  % Activity: 86.81%
[2]; OA2 Log[nM] 4.5
  % Activity: 108.09%
[2]; OA2 Log[nM] 5.3
  % Activity: 132.07% and 115.35%
[3]
  dose up to which no adverse effects were induced: up to 300 mg/kg
[4]
  IC50: > 200 µM
[5]
  EC50: 2.7 µM
[6]
  IC50: > 200 µM
[6]; OA2 Log[nM] 0.5
  % Activity: 101.88% and 103.15%
[6]; OA2 Log[nM] 1.5
  % Activity: 102.04%
[6]; OA2 Log[nM] 2.0
  % Activity: 108.80%
[6]; OA2 Log[nM] 3.0
  % Activity: 84.45%
[6]; OA2 Log[nM] 3.5
  % Activity: 109.88%
[6]; OA2 Log[nM] 4.5
  % Activity: 85.17% and 86.60%
[6]; OA2 Log[nM] 5.3
  % Activity: 58.33% and 105.63%
[7]; female YAC128 mice
  effect of treatment on total rearing or vertical movements: no significant effect
[7]; female mice
  effect of treatment on total locomotion (distance traveled, 30 min): diminish significantly (i.e. worsen)
[7]; male YAC128 mice
  effect of treatment on total rearing or vertical movements: no significant effect
[7]; male mice
  effect of treatment on total locomotion (distance traveled, 30 min): no significant effect
[8]
  IC50: > 200 µM
[8]; OA2 Log[nM] 0.5
  % Activity: 98.80% and 98.28%
[8]; OA2 Log[nM] 1.0
  % Activity: 97.64% and 98.21%
[8]; OA2 Log[nM] 1.5
  % Activity: 96.72% and 97.14%
[8]; OA2 Log[nM] 2.0
  % Activity: 96.42% and 96.10%
[8]; OA2 Log[nM] 2.5
  % Activity: 95.81% and 97.49%
[8]; OA2 Log[nM] 3.0
  % Activity: 96.63% and 95.68%
[8]; OA2 Log[nM] 3.5
  % Activity: 93.12% and 97.60%
[8]; OA2 Log[nM] 4.0
  % Activity: 91.35% and 92.53%
[8]; OA2 Log[nM] 4.5
  % Activity: 92.01% and 90.19%
[8]; OA2 Log[nM] 5.3
  % Activity: 63.73% and 61.76%
